{"source": "paper PMC8752738", "about": "“A propolis-derived small molecule ameliorates metabolic syndrome in obese mice by targeting the CREB/CRTC2 transcriptional complex” (Nature Communications, 2022)", "key": {"[1]": {"assay": "Pharmacokinetic studies", "type": "in vivo, mouse", "conditions": "ICR mice; for half-life: ICR", "method": "Male ICR mice (18–20 g, n = 3 in each group) were randomly assigned to treatment groups. After 12-h of fasting, baseline blood was collected into a tube containing ethylenediaminetetraacetic acid (EDTA). Animals were then treated orally with compound A57 or APC (p.o.: 20 mg/kg, in DMSO/0.5% HPMC 5/95, v/v) and intravenous injected the selected compounds (i.v.: 2 mg/kg, in DMSO/EtOH/PEG300/NaCl 5/5/40/50, v/v/v/v). Subsequently, blood samples per mouse were collected at 0.25, 0.5, 1, 2, 4, 8, 24 h for p.o.-treated groups and 0.05, 0.25, 0.75, 2, 4, 6, 8, 24 h for i.v.-treated groups. All samples were centrifuged at 12,000 rpm for 3 min, and the plasma was harvested. Aliquots of plasma samples were stored at −80 °C until analysis. The selected compounds' serum concentrations were determined by liquid chromatography/tandem mass spectrometry (LC–MS–MS). Pharmacokinetic parameters were determined from the selected compounds' serum concentrations by noncompartmental methods using WinNonLin professional version 4.1 (Pharsight Corp., Mountain View, CA)."}, "[2]": {"molecular_target": "T1, CREB / CRTC3 interaction (Homo sapiens, UniProt P16220)", "T1 construct": "expressed in transfected cells; host or cells: HEK293T", "assay": "Co-immunoprecipitation of GFP-CRTC3 by MYC-CREB, HEK293T", "type": "cell-based", "conditions": "overexpression HEK293T cells, APC 10 μM", "method": "1 Supplementary Figure 2.\n2 a) Immunoblot of HA-P300 recovered from HEK293T cell lysate using GST-CREB beads. APC\n3 (10 μM) was incubated with cells for 1-h before FKS (10 nM) stimulation and was included in the\n4 following pull-down mixtures (n=3). One of two independent experiments presented here.\n5 b) Immunoblot for recovered GFP-CRTC1 or (c) GFP-CRTC3 immunoprecipitated by MYC-CREB\n6 from overexpression HEK293T cell line. APC (10 μM) was incubated with cells for 1-h before FKS\n7 (10 nM) stimulation and was included in the following pull-down mixtures. One of two independent\n8 experiments presented here.\n9 d) SPR sonogram traces of APC binding with HIS-CREB proteins immobilized to NTA-chip. The\n10 concentration series of APC was as indicated.\n11 e) SPR sonogram traces of APC flowing through HIS-CRTC2-S171A proteins immobilized on\n12 NTA-chip. The concentration of APC was as indicated.\n13 f) The luciferase enzymatic activity of HEK293T incubated with APC. Cells over-expressed\n14 luciferase CRE-Luc reporter and were stimulated by FSK (10 nM) for 5-h before lysis, which was\n15 then incubated with APC (concentration indicated) for 30 min before luciferase activity determination\n16 (n=3 per treatment). Data are represented as mean ± SEM. *, p < 0.05; **, p < 0.01; p values were\n17 determined by one-way ANOVA followed Dunnett’s multiple comparisons test. […]"}, "[3]": {"assay": "Daily food intake", "type": "in vivo, mouse", "conditions": "for foodintake in DIO, mean / foodintake in DIO: DIO mice; for foodintake in DIO, mean: group mean, n=6; for foodintake in DIO: individual values; for foodintake of db/db: single animals; for foodintake of db/db, group mean: mean of APC group, N=5"}, "[4]": {"tested_on": "FGF21", "assay": "Immunoblotting of plasma and liver FGF21", "type": "in vivo, mouse", "method": "1 Supplementary Figure 10. A57 is novel inhibitor of the CREB/CRTC2 protein complex. […]\n20 e) Immunoblotting of plasma and liver FGF21 protein in Crtc2KO mice, which induced by a high\n21 fat diet for 13 weeks then orally administered APC (20 mg/kg), A57 (20 mg/kg) or vehicle (VEH) for\n1 3 weeks. Two technological repeats present a composite pool including 5 mice per group. One\n2 representative result from three-independent experiments is shown here.\n3 f) Relative plasma FGF21 (top) and liver FGF21 (bottom), normalized by R250 signaling or\n4 ACTIN respectively, is shown here as a bar graph. Data are represented as mean ± SEM (n=5 per\n5 group, two technological repeats present a composite pool). ns, p > 0.05; *, p < 0.05; **, p < 0.01; p\n7 for this figure are provided as a Source data file."}, "[5]": {"conditions": "male, mouse, plasma, iv, i.v. 2 mg/kg"}, "[6]": {"conditions": "male, mouse, plasma, po, p.o. 20 mg/kg"}}, "note": "Where “and” joins values, the source holds several entries; their conditions need not be identical. Equal values may be shown once.", "data": [{"compound": "CC(C)=CCc1cc(C=CC(=O)O)cc(CC=C(C)C)c1O", "note": "[APC, 3,5-diprenyl-4-hydroxycinnamic acid]", "values": [{"measurement": "Fpo", "setting": "[1]; p.o. 20 mg/kg vs i.v. 2 mg/kg", "result": 14.4, "unit": "%"}, {"measurement": "T1/2", "setting": "[1]; p.o. 20 mg/kg, 20 mg/kg", "result": 3.29, "unit": "h"}, {"measurement": "half-life", "setting": "[1]; male, mouse, plasma, iv, 2 mg/kg, i.v. 2 mg/kg", "result": 5.89, "unit": "h"}, {"measurement": "half-life", "setting": "[1]; male, mouse, plasma, po, 20 mg/kg, p.o. 20 mg/kg", "result": 2.11, "unit": "h"}, {"measurement": "AUC(0-t)", "setting": "[1]; [5]", "result": 428, "unit": "ng·h/mL"}, {"measurement": "MRT", "setting": "[1]; [5]", "result": 2.46, "unit": "h"}, {"measurement": "clearance", "setting": "[1]; [5]", "result": 78, "unit": "mL/min/kg"}, {"measurement": "AUC(0-t)", "setting": "[1]; [6]", "result": 616, "unit": "ng·h/mL"}, {"measurement": "Cmax", "setting": "[1]; [6]", "result": 510, "unit": "ng/mL"}, {"measurement": "MRT", "setting": "[1]; [6]", "result": 4.33, "unit": "h"}, {"measurement": "Tmax", "setting": "[1]; [6]", "result": 0.25, "unit": "h"}, {"measurement": "interaction of CREB and CRTC3", "setting": "[2]", "result": "attenuated"}, {"measurement": "foodintake in DIO, mean", "setting": "[3]; APC 10mg/kg", "result": 3.935, "unit": "g/mouse/day"}, {"measurement": "foodintake in DIO", "setting": "[3]; APC 10mg/kg", "result": "3.44 g/mouse/day and 4.55 g/mouse/day and 3.83 g/mouse/day and 3.87 g/mouse/day and 4.39 g/mouse/day and 3.53 g/mouse/day"}, {"measurement": "foodintake in DIO, mean", "setting": "[3]; APC 20mg/kg", "result": 3.517, "unit": "g/mouse/day"}, {"measurement": "foodintake in DIO", "setting": "[3]; APC 20mg/kg", "result": "3.89 g/mouse/day and 3.58 g/mouse/day and 3.67 g/mouse/day and 3.06 g/mouse/day and 3.73 g/mouse/day and 3.17 g/mouse/day"}, {"measurement": "foodintake of db/db", "setting": "[3]; db/db mice, day 1", "result": "6.30 g/per mouse/24h and 5.90 g/per mouse/24h and 7.80 g/per mouse/24h and 7.20 g/per mouse/24h and 6.43 g/per mouse/24h"}, {"measurement": "foodintake of db/db, group mean", "setting": "[3]; db/db mice, day 2", "result": 6.34, "unit": "g/per mouse/24h"}, {"measurement": "foodintake of db/db", "setting": "[3]; db/db mice, day 2", "result": "5.90 g/per mouse/24h and 6.90 g/per mouse/24h and 7.10 g/per mouse/24h and 7.50 g/per mouse/24h and 6.30 g/per mouse/24h"}, {"measurement": "foodintake of db/db, group mean", "setting": "[3]; db/db mice, day 3", "result": 6.44, "unit": "g/per mouse/24h"}, {"measurement": "foodintake of db/db", "setting": "[3]; db/db mice, day 3", "result": "6.10 g/per mouse/24h and 7.30 g/per mouse/24h and 5.80 g/per mouse/24h and 7.20 g/per mouse/24h and 6.20 g/per mouse/24h"}, {"measurement": "foodintake of db/db, group mean", "setting": "[3]; db/db mice, day 4", "result": 6.5, "unit": "g/per mouse/24h"}, {"measurement": "foodintake of db/db", "setting": "[3]; db/db mice, day 4", "result": "7.40 g/per mouse/24h and 6.30 g/per mouse/24h (2×) and 6.20 g/per mouse/24h and 5.90 g/per mouse/24h"}, {"measurement": "foodintake of db/db, group mean", "setting": "[3]; db/db mice, day 5", "result": 6.68, "unit": "g/per mouse/24h"}, {"measurement": "foodintake of db/db", "setting": "[3]; db/db mice, day 5", "result": "5.70 g/per mouse/24h and 7.20 g/per mouse/24h and 6.80 g/per mouse/24h and 7.90 g/per mouse/24h and 5.80 g/per mouse/24h"}, {"measurement": "foodintake of db/db, group mean", "setting": "[3]; db/db mice, day 6", "result": 6.9, "unit": "g/per mouse/24h"}, {"measurement": "foodintake of db/db", "setting": "[3]; db/db mice, day 6", "result": "8.00 g/per mouse/24h and 6.80 g/per mouse/24h and 6.10 g/per mouse/24h and 7.20 g/per mouse/24h and 6.40 g/per mouse/24h"}, {"measurement": "foodintake of db/db, column mean over days 1-6", "setting": "[3]; db/db mice, Mean of APC, two-way RM ANOVA", "result": 6.737, "unit": "g/per mouse/24h"}, {"measurement": "daily food intake", "setting": "[3]; obese mice, 2 weeks of APC injection", "result": "no significant effects"}, {"measurement": "plasma and liver FGF21", "setting": "[4]; Crtc2KO mice, oral 20 mg/kg, 3 weeks", "result": "did not further increase"}, {"measurement": "liver FGF21 in CRTC2, group mean (Mean 2)", "setting": "[4]; Supp. Fig.10 f down, CRTC2KO mice, n=3, VEH mean 2.47", "result": 2.579}, {"measurement": "Bands density of FGF21 in the liver", "setting": "[4]; Supp. Fig.10 f down, CT2KO (CRTC2KO) mice, oral, individual replicates, Veh about 2.47", "result": "2.47 and 2.45 and 2.816"}, {"measurement": "Bands density, plasma FGF21 in CRTC2", "setting": "[4]; Supp. Fig.10 f up, CRTC2KO mice, individual replicates, VEH about 2.31", "result": "2.4404 and 2.52 and 2.451"}, {"measurement": "Bands density, plasma FGF21 in CRTC2, group mean (Mean 2)", "setting": "[4]; Supp. Fig.10 f up, CRTC2KO mice, n=3, VEH mean 2.31", "result": 2.47}]}]}
